In brackets after ≈: the same amount, converted by molar mass. Read-outs that look alike come from different tables or passages of the source.
Tests used:
[1] = system: Staphylococcus aureus SA100 (ATCC 13709, MSSA, Smith strain); experiment: MIC assay, SA100; type: cell-based; details: S. aureus ATCC 13709, MSSA, Table 4, read-out: MIC SA 100 13709
[2] = system: Staphylococcus aureus SA191 (HA-MRSA, tetracycline-resistant); experiment: MIC assay, SA191; type: cell-based; details: S. aureus HA-MRSA, tetracycline-resistant, Table 5, read-out: MIC SA 191
[3] = system: Staphylococcus aureus SA161 (HA-MRSA, tet(M)); experiment: MIC assay, SA161; type: cell-based; details: S. aureus HA-MRSA, tet(M); Table 5
[4] = system: Staphylococcus aureus SA158 (tetracycline-resistant tet(K)); experiment: MIC assay, SA158; type: cell-based
[5] = system: Enterococcus faecalis EF103 (ATCC 29212); experiment: MIC assay, EF103; type: cell-based; details: ATCC29212, E. faecalis ATCC 29212, Table 4, read-out: MIC EF 103 29212
[6] = system: Enterococcus faecalis EF159 (tet(M)); experiment: MIC assay, EF159; type: cell-based; details: E. faecalis tet(M), Table 4, read-out: MIC EF 159 tetM
[7] = system: Enterococcus faecalis EF327 (wound isolate, tet(M)); experiment: MIC assay, EF327; type: cell-based
[8] = system: Streptococcus pneumoniae SP106 (ATCC 49619); experiment: MIC assay, SP106; type: cell-based; details: ATCC49619, S. pneumoniae ATCC 49619, Table 4, read-out: MIC SP 106 49619
[9] = system: Streptococcus pneumoniae SP160 (tet(M)); experiment: MIC assay, SP160; type: cell-based
[10] = system: Streptococcus pyogenes SP312 (2009 clinical isolate, tet(M)); experiment: MIC assay, SP312; type: cell-based; details: S. pyogenes tet(M)
[11] = system: Haemophilus influenzae HI262 (tetracycline-resistant, ampicillin-resistant); experiment: MIC assay, HI262; type: cell-based; details: H. influenzae tetracycline-resistant, Table 5, read-out: MIC HI 262 33929
[12] = system: Escherichia coli EC155 (tet(A)); experiment: MIC assay, EC155; type: cell-based
[13] = system: Enterobacter cloacae EC603 (urine isolate); experiment: MIC assay, EC603; type: cell-based; details: control compounds
[14] = system: Escherichia coli EC878 (MG1655 tolC::kan); experiment: microbe, parasite or virus in culture; type: cell-based
[15] = system: Proteus mirabilis PM112 (ATCC 35659); experiment: MIC assay, PM112; type: cell-based; details: ATCC35659, P. mirabilis ATCC 35659, Table 5, read-out: MIC PM 112 35659
[16] = system: Proteus mirabilis PM385 (urine ESBL+ isolate); experiment: MIC assay, PM385; type: cell-based
[17] = system: Pseudomonas aeruginosa PA111 (ATCC 27853); experiment: MIC assay, PA111; type: cell-based; details: ATCC27853, P. aeruginosa ATCC 27853, Table 4, read-out: MIC PA 111 27853
[18] = system: Pseudomonas aeruginosa PA673 (2009 urine isolate); experiment: MIC assay, PA673; type: cell-based; details: control compounds
[19] = system: Pseudomonas aeruginosa PA693 (2009 corneal scraping isolate); experiment: MIC assay, PA693; type: cell-based; details: control compounds
[20] = system: Pseudomonas aeruginosa PA1145 (strain used in murine pneumonia model); experiment: MIC assay, PA1145; type: cell-based; details: control compounds
[21] = system: Acinetobacter baumannii AB250 (cystic fibrosis isolate, MDR); experiment: MIC assay, AB250; type: cell-based; details: control compounds
EC 882 imp = experiment: MIC assay, EC882; type: cell-based
Description: Minimum Inhibitory Concentration (MIC) Assay
The assays were run as follows.

[22] = system: Klebsiella pneumoniae KP153 (tet(A), MDR, ESBL+)
KP 194 7E+05 = experiment: MIC assay, KP194; details: Table 5
Description: (§1) MICs were determined according to the Clinical and Laboratory Standards Institute (CLSI) guidances (e.g., CLSI. Performance standards for antimicrobial susceptibility testing; nineteenth information supplement. CLSI document M100-S19, CLSI, 940 West Valley Road, Suite 1400, Wayne, Pa. 19087-1898, USA, 2009). Briefly, frozen bacterial strains were thawed and subcultured onto Mueller Hinton Broth (MHB) or other appropriate media (Streptococcus requires blood and Haemophilus requires hemin and NAD). Following incubation overnight, the strains were subcultured onto Mueller Hinton Agar and again incubated overnight. […] Isolated colonies were selected to prepare a starting inoculum equivalent to a 0.5 McFarland standard. […] Test compounds were prepared by dilution in sterile water to a final concentration of 5.128 mg/mL. Antibiotics (stored frozen, thawed and used within 3 hours of thawing) and compounds were further diluted to the desired working concentrations.
(§2) The assays were run as follows. Fifty μL of MHB was added to wells 2-12 of a 96-well plate. One hundred μL of appropriately diluted antibiotics was added to well 1. Fifty μL of antibiotics was removed from well 1 and added to well 2 and the contents of well 2 mixed by pipetting up and down five times. Fifty μL of the mixture in well 2 was removed and added to well 3 and mixed as above. Serial dilutions were continued in the same manner through well 12. Fifty μL was removed from well 12 so that all contained 50 μL. Fifty μL of the working inoculum was then added to all test wells. A growth control well was prepared by adding 50 μL of working inoculum and 50 μL of MHB to an empty well. The plates were then incubated at 37° C. overnight, removed from the incubator and each well was read on a plate reading mirror. The lowest concentration (MIC) of test compound that inhibited the growth of the bacteria was recorded.

PA 884 35151 = experiment: MIC assay, PA884; details: Pseudomonas aeruginosa, read-out: MIC PA 884 351 51
Description: as §1, §2

PA 689 = experiment: MIC assay, PA689; details: Pseudomonas aeruginosa, read-out: MIC PA 689
Description: as §1, §2

`CN(C)c1ccc(O)c2c1C[C@H]1C[C@H]3[C@H](N(C)C)C(O)=C(C(N)=O)C(=O)[C@@]3(O)C(O)=C1C2=O` [Minocycline, minocycline] was tested, and the MIC [1] was 0.063 µg/mL (≈ 0.138 µM), the MIC [2] was 8 µg/mL (≈ 17.5 µM) and the “MIC SA 161 tetM” value [3] was 8 µg/mL (≈ 17.5 µM). For the same compound, the MIC ([4]; S. aureus tet(K), Table 4, read-out: MIC SA 158 tetK) was 0.031 µg/mL (≈ 0.0678 µM), the MIC ([4]; S. aureus tet(K), Table 5, read-out: MIC SA 158 tetK) was 0.03 µg/mL (≈ 0.0656 µM) and the MIC ([4]; S. aureus tet(K), Table 6, read-out: MIC SA 158 tetK) was 0.03 µg/mL (≈ 0.0656 µM). It also gave an MIC ([4]; S. aureus tet(K), Table 7, read-out: MIC SA 158 tetK) of 0.03 µg/mL (≈ 0.0656 µM), an MIC ([4]; control compounds, numeric, read-out: MIC SA 158 tetK) of 0.03 µg/mL (≈ 0.0656 µM) and an MIC ([4]; control compounds, read-out: MIC SA 158 tetK) of 0.03 µg/mL (≈ 0.0656 µM). It also gave an MIC [5] of 1 µg/mL (≈ 2.19 µM), an MIC [6] of 16 µg/mL (≈ 35 µM) and an MIC ([7]; E. faecalis tet(M), Table 6, read-out: MIC EF 327 tet M) of 32 µg/mL (≈ 69.9 µM). For the same compound, the MIC ([7]; control compounds, numeric, read-out: MIC EF 327 tetM) was 32 µg/mL (≈ 69.9 µM), the MIC [8] was 0.015 µg/mL (≈ 0.0328 µM) and the MIC ([9]; S. pneumoniae tet(M), Table 6, read-out: MIC SP 160 tet M) was 2 µg/mL (≈ 4.37 µM). For the same compound, the MIC ([9]; control compounds, numeric, read-out: MIC SP 160 tetM) was 2 µg/mL (≈ 4.37 µM), the MIC ([10]; Table 5, read-out: MIC SP 312) was 16 µg/mL (≈ 35 µM) and the MIC ([10]; Table 6, read-out: MIC SP 312 tet M) was 16 µg/mL (≈ 35 µM). For the same compound, the MIC [11] was 1 µg/mL (≈ 2.19 µM), the MIC ([12]; Escherichia coli, E. coli tet(A), Table 7, read-out: MIC EC 155 tetA) was 8 µg/mL (≈ 17.5 µM) and the “MIC EC 155 tetA” value ([12]; control compounds) was 8 µg/mL (≈ 17.5 µM). The MIC ([13]; c7, strain EC603 inferred, read-out: MIC) was 33 µg/mL (≈ 72.1 µM), the MIC ([13]; numeric, read-out: MIC EC 603 tetA) was 33 µg/mL (≈ 72.1 µM) and the MIC ([14]; MG1655, read-out: MIC EC 878 toIC, E. coli MG1655 tolC::kan, Table 6) was 0.25 µg/mL (≈ 0.546 µM). The MIC ([14]; MG1655, read-out: MIC EC 878 toIC, E. coli MG1655 tolC::kan, Table 7) was 0.25 µg/mL (≈ 0.546 µM), the MIC ([14]; MG1655, read-out: MIC EC 878 toIC, control compounds) was 0.25 µg/mL (≈ 0.546 µM) and the MIC ([14]; MG1655, read-out: MIC EC 878 tolC, control compounds, numeric) was 0.25 µg/mL (≈ 0.546 µM). The MIC [15] was 8 µg/mL (≈ 17.5 µM), the MIC ([16]; P. mirabilis ESBL+, Table 6, read-out: MIC PM 385) was 16 µg/mL (≈ 35 µM) and the MIC ([16]; control compounds, numeric, read-out: MIC PM 385 CTX-M15) was 16 µg/mL (≈ 35 µM). The MIC [17] was 16 µg/mL (≈ 35 µM), the MIC ([18]; c3, strain PA673 inferred, read-out: MIC) was 32 µg/mL (≈ 69.9 µM) and the MIC ([18]; numeric, read-out: MIC PA 673) was 33 µg/mL (≈ 72.1 µM). It also gave an MIC ([19]; c5, strain PA693 inferred, read-out: MIC) of 33 µg/mL (≈ 72.1 µM), an MIC ([19]; numeric, read-out: MIC PA 693) of 33 µg/mL (≈ 72.1 µM) and an MIC ([20]; c6, strain PA1145 inferred, read-out: MIC) of 33 µg/mL (≈ 72.1 µM). It also gave an MIC ([20]; numeric, read-out: MIC PA 1145) of 32 µg/mL (≈ 69.9 µM), an MIC ([21]; c8, strain AB250 inferred, read-out: MIC) of 8 µg/mL (≈ 17.5 µM) and an MIC ([21]; numeric, read-out: MIC AB 250) of 8 µg/mL (≈ 17.5 µM). The MIC (EC 882 imp; Table 6, read-out: MIC EC 882 imp) was 0.015 µg/mL (≈ 0.0328 µM), the MIC (EC 882 imp; read-out: MIC EC 882 imp, Table 7) was 0.02 µg/mL (≈ 0.0437 µM) and the “MIC KP 153 tetA” value [22] was 8 µg/mL (≈ 17.5 µM). For the same compound, the “MIC KP 194 7E+05” value (KP 194 7E+05) was 32 μg/mL, the MIC (PA 884 35151) was 1 µg/mL (≈ 2.19 µM) and the MIC (PA 689) was 8 µg/mL (≈ 17.5 µM).

Reference: patent US10315992B2, “Tetracyline compounds” (Tetraphase Pharmaceuticals, Inc., priority 2012, dated 2019)
